We go through 13 compounds from patent US20110082114A1, “Methods of Treating Aneurysmal Dilatation, Blood Vessel Wall Weakness and Specifically Abdominal Aortic and Thoracic Aneurysm Using Matrix Metalloprotease-2 Inhibitors” (SYMPHONY EVOLUTION, INC., priority 2009, published 2011).

Each structure is given as a SMILES string. Some results are limits rather than exact numbers.

Assay [1] concerns C57/B16 mice, elastase-perfused abdominal aorta. Nature of the assay: Elastase-perfusion mouse model of AAA, aortic diameter. The class given is in vivo. Particulars: for mean % ΔAD (increase in aortic diameter at 2 weeks): daily gavage in Cremophor, Mean±SE. The text has this:
All mice used in the experiment were commercially obtained C57/B16 inbred strain mice. Throughout the experimental course, mice were allowed free access to food and water. Animals were housed in a controlled animal facility, and all mouse care and treatment occurred under approved protocols.
A total of 89 C57/B16 mice were subjected to transient perfusion of the abdominal aorta according to a protocol known in the art. Briefly, after sedation and preparation, the aorta was approached through a midline laparotomy. The infrarenal aorta was dissected and the diameter was measured under physiologic blood pressure. A segment of infrarenal aorta was isolated and a 5 minute perfusion of this segment was performed through an arteriotomy at 100 mmHg with a solution containing type I porcine pancreatic elastase (PPE 0.16 U/mL). All of the experiments were performed with a single PPE preparation derived from the same commercial source and lot.
Following aortic perfusion the arteriotomy was repaired, the laparotomy was closed and the animal was allowed to completely recover before returning to its standard housing.
Following aortic perfusion, animals were placed into one of 5 treatment groups. […] Three different doses of the agent were used, 50 mg/kg/day (n=17), 125 mg/kg/day (n=17), and 250 mg/kg/day (n=18). There were two mice in each group which died following aortic perfusion, and all others were available for analysis. Control animals (n=18) were similarly treated with daily gavage of the Cremophor diluent only. Of these mice, 16 survived the two weeks following aortic perfusion and underwent final aortic measurements and harvest. […] In this group, 4 mice died prior to the two week harvest, and all others were used in the analysis of aneurysm growth.
Two weeks following elastase perfusion, the mice were again anesthetized; the laparotomy incision was reopened and the final aortic diameter was measured in vivo prior to sacrifice. The animals were humanely sacrificed, and circulating blood and the entire perfused segment of aorta was harvested for RNA extraction, protein extraction or histology.

The test system is the same in assay [2]. Nature of the assay: Elastase-perfusion mouse model of AAA, aortic histology. Conditions: 50, 125, 250 mg/kg/day. The class given is in vivo. Here is the method: The aortas from several mice from each experimental group were perfusion fixed with 10% neutral-buffered formalin, removed, and placed in additional formalin for a minimum of 24 hours prior to processing for paraffin embedding. Following paraffin embedding, aortic specimens were cut into 5 μm sections and mounted on glass slides. Each specimen was stained with hematoxylin and eosin to evaluate inflammatory cell infiltration and Accustain® Elastic Stain kit to assess the degree of elastin degradation. Photomicrographs of serial sections were obtained using an Olympus BX60 light microscope equipped with CV12 video capture camera.
Representative aortas from each group were fixed in formalin following aortic harvest and processed into paraffin blocks. During harvest only the maximally dilated segment of the aorta was taken, and serial sections of the block were made to assure that the most dilated segment of aorta was imaged. These maximally dilated segments were stained with Hematoxylin and Eosin stains as well as an elastin highlighting stain (Verhoff-Von Giesen [VVG]).

The next assay deals with T1, mADAM-10 or hADAM-10 (UniProt O14672).
T1 sequence (O14672 1-748): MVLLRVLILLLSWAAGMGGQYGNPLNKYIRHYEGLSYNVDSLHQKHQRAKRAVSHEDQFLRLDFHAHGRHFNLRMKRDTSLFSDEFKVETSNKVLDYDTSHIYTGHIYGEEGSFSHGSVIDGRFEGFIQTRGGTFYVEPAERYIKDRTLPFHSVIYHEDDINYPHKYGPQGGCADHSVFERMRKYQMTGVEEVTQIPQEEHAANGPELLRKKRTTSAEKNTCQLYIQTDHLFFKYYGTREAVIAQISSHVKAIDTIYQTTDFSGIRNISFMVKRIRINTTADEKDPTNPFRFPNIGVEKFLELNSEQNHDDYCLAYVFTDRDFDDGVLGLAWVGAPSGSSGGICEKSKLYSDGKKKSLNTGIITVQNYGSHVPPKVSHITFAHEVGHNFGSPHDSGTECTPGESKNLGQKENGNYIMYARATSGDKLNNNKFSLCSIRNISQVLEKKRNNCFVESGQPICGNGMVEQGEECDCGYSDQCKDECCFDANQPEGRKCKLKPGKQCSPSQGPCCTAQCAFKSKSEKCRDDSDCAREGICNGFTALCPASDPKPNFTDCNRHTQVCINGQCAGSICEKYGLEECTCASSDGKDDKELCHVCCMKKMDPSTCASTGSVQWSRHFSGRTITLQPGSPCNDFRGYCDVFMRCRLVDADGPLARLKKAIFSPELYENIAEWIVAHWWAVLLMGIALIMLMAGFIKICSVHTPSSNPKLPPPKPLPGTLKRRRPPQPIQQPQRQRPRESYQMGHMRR
Nature of the assay: ADAM-10 enzyme assay (fluorogenic peptide cleavage).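 Further: fluorescence from cleavage of a quenched 10-residue DABCYL/EDANS peptide by 5 nM enzyme in HEPES pH 8.0 buffer, 16 hr at room temperature, compounds serially diluted 100 µM to 0.5 nM.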 The class given is biochemical.

As usually defined, the IC50 is the concentration needed to halve the response being measured. The low end stands for higher potency, the high end for lower potency.

Description for mADAM-10 or hADAM-10: mADAM-10 or hADAM-10 activity was measured as the ability to cleave a 10-residue peptide (DABCYL-Leu-Leu-Ala-Gln-Lys-*-Leu-Arg-Ser-Ser-Arg-EDANS). […] Enzyme was diluted to a final active concentration of 5 nM in Buffer A (50 mM HEPES 8.0, 100 mM NaCl, 1 mM CaCl2 and 0.01% NP-40). Serial dilutions for compounds were performed ranging from 100 μM to 0.5 nM using a Beckman Biomek 2000 in polypropylene plates (Greiner). […] This reaction was incubated for 16 hr at RT and fluorescence was read using identical conditions.

As for `COCCOC(=O)N1CCN(S(=O)(=O)c2cc(F)c(Oc3ccc(Cl)cc3)c(F)c2)[C@@H](C(=O)NO)C1` [Entry 15], the “mean % ΔAD (increase in aortic diameter at 2 weeks)” value was determined as 129.3±5.1% in assay [1] (125 mg/kg/day), 119.2±14.1% in assay [1] (250 mg/kg/day) and 140.4±3.2% in assay [1] (lowest dose (50 mg/kg/day)). Further, the “animals which did not develop aneurysms” value in assay [1] (250 mg/kg/day, daily gavage) was determined as 12%. Moreover, in assay [1] (all doses (50, 125, 250 mg/kg/day)), the “aortic diameters at harvest compared with control animals” value is reported as “significantly smaller than control animals”. For the same compound, the “animals that developed maximal diameters greater than 100%” value in assay [1] (low (50 mg/kg/day) and intermediate (125 mg/kg/day) dose groups) is “All animals”. In addition, the “degree of elastin damage and inflammatory cell inflammation versus dose” value in assay [2] is “inversely correlated with the dose of the agent administered”.
`C[C@H]1c2cccc(O)c2C(=O)C2=C(O)[C@]3(O)C(=O)C(C(N)=O)=C(O)[C@@H](N(C)C)[C@@H]3[C@@H](O)[C@@H]21` [doxycycline, reference compound]: the “animals not reaching the threshold designated for aneurysms (% ΔAD greater than 100%)” value in assay [1] (doxycycline in drinking water, 100 mg/kg/day) is given as 13%. Moreover, in assay [1] (doxycycline in drinking water, 100 mg/kg/day, n=15, Mean±SE), the “mean % ΔAD (percentage increase in aortic diameter at 2 weeks compared to baseline)” value turned out to be 112.2±2.0%.
`O=C(NO)[C@H]1CN(CC(=O)N2CCCC2)CCN1S(=O)(=O)c1cc(F)c(Oc2ccc(Cl)cc2)c(F)c1` [Entry 21] yielded an IC50 against mADAM-10 or hADAM-10 below 50 nM.
Still for that read-out and setting: as for `O=C(NO)[C@H]1CN(S(=O)(=O)Cc2ccncc2)CCN1S(=O)(=O)c1cc(F)c(Oc2ccc(Cl)cc2)c(F)c1` [Entry 34], the figure is below 50 nM.
Still for that read-out and setting: as for `O=C(CCl)NC(=O)N1CCN(S(=O)(=O)c2cc(F)c(Oc3ccc(Cl)cc3)c(F)c2)[C@@H](C(=O)NO)C1` [Entry 33], the figure is below 50 nM.
Still for that read-out and setting: for `COCCN1CCN(S(=O)(=O)c2cc(F)c(Oc3ccc(Cl)cc3)c(F)c2)[C@@H](C(=O)NO)C1` [Entry 29] the value was below 50 nM; for `CN(C)S(=O)(=O)N1CCN(S(=O)(=O)c2cc(F)c(Oc3ccc(Cl)cc3)c(F)c2)[C@@H](C(=O)NO)C1` [Entry 36], below 50 nM; for `O=C(O)CN1CCN(S(=O)(=O)c2cc(F)c(Oc3ccc(Cl)cc3)c(F)c2)[C@@H](C(=O)NO)C1` [Entry 63], 50 to 1000 nM.
`COCCOC(=O)N1CCN(S(=O)(=O)c2ccc(Oc3ccc(F)cc3)nc2)[C@@H](C(=O)NO)C1` [Entry 65] registered an IC50 at mADAM-10 or hADAM-10 of 50 to 1000 nM.
`CNC(=O)CN1CCN(S(=O)(=O)c2cc(F)c(Oc3ccc(Cl)cc3)c(F)c2)[C@@H](C(=O)NO)C1` [Entry 19] gave an IC50 against mADAM-10 or hADAM-10 below 50 nM.
For `COCCOC(=O)N1CCN(S(=O)(=O)c2ccc(-c3cccc(F)c3)nc2)[C@@H](C(=O)NO)C1` [Entry 66], the half-inhibitory concentration (IC50) against mADAM-10 or hADAM-10 is below 50 nM.
The same measure, in the same setting: for `O=C(NO)[C@H]1CN(C(=O)C(=O)N2CCCCC2)CCN1S(=O)(=O)c1cc(F)c(Oc2ccc(Cl)cc2)c(F)c1` [Entry 35] the value was below 50 nM; for `O=C(NO)[C@H]1CN(S(=O)(=O)NC(=O)N2CCOCC2)CCN1S(=O)(=O)c1cc(F)c(Oc2ccc(Cl)cc2)c(F)c1` [Entry 38], below 50 nM.
